The text below walks through data of patent US20250312416A1, “METHOD AND PHARMACEUTICAL COMPOSITION FOR CARTILAGE REGENERATION” (FAR EASTERN MEMORIAL HOSPITAL, priority 2024, published 2025).

In test [1] the test system is clinical-grade ADSCs. Briefly: Real-time PCR of chondrogenic genes in ADSCs. It is filed as cell-based, human. As to conditions: for expression of chondrogenic genes (SOX9, COL2A1, COMP, ACAN, ITGB1, CXCL14, CXCR4): alanine-substituted variants, 10 ng one-day treatment, day 7, relative to untreated control ADSCs. As for the experimental part: Real-time PCR analysis was conducted on day 7 for CXCL12/CXCL14 peptides treated ADSCs, evaluating the expression of COMP, SOX9, COL2A1, ACAN, ITGB1, and SOSTDC1 genes. Cells were harvested, and RNA extraction was performed using a LightCycler® (Roche Applied Science). The fold change in gene expression on the y-axis was calculated relative to the same gene expression in untreated chondrocytes. Statistical analysis was conducted using one-way ANOVA. Significance levels are denoted as follows: * p<0.05, ** p<0.01, *** p<0.001, and **** p<0.0001 for comparisons between PBS treatments and the untreated group.
Real-time PCR analysis was performed on day 7 for ADSCs treated with CXCR4 agonists, assessing the expression of COMP, SOX9, COL2A1, ACAN, ITGB1, CXCL14, and SOSTIC1 genes. Cellular harvest, RNA extraction, and gene expression quantification were conducted using a LightCycler® (Roche Applied Science). The fold change in gene expression on the y-axis was calculated relative to the same gene expression in untreated chondrocytes. Statistical analysis was executed through one-way ANOVA. Significance levels are represented as follows: * p<0.05, ** p<0.01, *** p<0.001, and **** p<0.0001, indicating the significance of comparisons between PBS treatments and the untreated group.
(§1) Alcian blue staining was used to assess the chondrogenic differentiation of ADSC pellets. […] Treatment with CXCL14-PM1, CXCL14-PM2, CXCL14-PM3, and CXCR4-PM1 was sufficient to enhance the expression of chondrogenic genes in ADSCs. On day 7, real-time PCR was performed to analyze the expression of key chondrogenic markers, including SOX9, COL2A1, COMP, ACAN, ITGB1, CXCL14, and CXCR4, in ADSCs treated with these modified peptides. ADSCs were exposed to distinct peptide modifications derived from CXCL12, CXCL14, and CXCR4 at a concentration of 10 ng for a one-day treatment, after which the medium was replaced with fresh peptide-free medium. At the end of the treatment period, RNA was extracted to evaluate the expression levels of chondrogenesis-related cytokine genes. Gene expression quantification was performed using a LightCycler system (Roche Applied Science), and fold changes were calculated relative to untreated control ADSCs. […] FIG. 16(D) provides a summary of the results for alanine substitution with positively or negatively charged amino acids in CXCL12, CXCL14, and CXCR4 peptides.
ADSCs were treated with CXCL14-P, CXCL14-P1, or CXCL14-P2, respectively, at a concentration of 10 ng for 24 hours, after which the medium was replaced with fresh peptide-free medium. On day 7, total RNA was extracted, and real-time PCR analysis was performed to assess the expression levels of key chondrogenic markers, including ACAN, COL2A1, SOX9, and COMP. Gene expression levels were quantified using a LightCycler system (Roche Applied Science), with fold changes calculated relative to untreated control ADSCs. […] Immunofluorescence staining was performed to detect Collagen Type II, SOX9, COMP, and nuclei (Hoechst 33342) in 3D ADSC spheroids (middle panel). […]
Human IPFP-MSCs and ADSCs were expanded in Dulbecco's Modified Eagle's Medium (DMEM, Gibco, cat. no 2145484) with 10% FBS under a 37° C., 5% CO2 atmosphere. MSCs collected and cell extractions were determined gene expression levels of cytokines and chondrogenic markers using a LightCycler® (Roche Applied Science). The fold change in gene expression on the y-axis was calculated based on untreated cell gene expression.
Background: In qPCR the cycle at which signal appears reflects the starting amount.

For test [2], the system named is ADSC spheroids. Briefly: Immunofluorescence / confocal microscopy of chondrogenic proteins in ADSC spheroids. The format is cell-based, human. As to conditions: ADSC spheroids, 7 days. As to the method: Both side views (observed in the x and z plane) and bottom views (observed in the […]) of the images are provided. The scale bar is set at 500 μm.
ADSCs were treated with CXCL14-P, CXCL14-P1, or CXCL14-P2, respectively, at a concentration of 10 ng for 24 hours, after which the medium was replaced with fresh peptide-free medium. On day 7, total RNA was extracted, and real-time PCR analysis was performed to assess the expression levels of key chondrogenic markers, including ACAN, COL2A1, SOX9, and COMP. Gene expression levels were quantified using a LightCycler system (Roche Applied Science), with fold changes calculated relative to untreated control ADSCs. […] Immunofluorescence staining was performed to detect Collagen Type II, SOX9, COMP, and nuclei (Hoechst 33342) in 3D ADSC spheroids (middle panel).
(FIG. 3). […] Moreover, fluorescence confocal microscopy was employed to detect protein patterns and confirm the levels of SOX9, type II collagen, and aggrecan proteins in ADSC spheroids. […] Finally, to investigate whether the CXCR4 receptor of CXCL12/CXCL14 confers chondrogenic signaling during chondrogenesis, we treated ADSCs with a CXCR4 agonist for 7 days.
Extracellular vesicles (EVs) derived from MSCs hold significant potential for repairing damaged tissues. In this study, we explored whether EVs from ADSCs could effectively enhance chondrogenesis and promote cartilage repair. Immunofluorescence staining was used to assess protein levels of Collagen Type II (green), SOX9 (red), COMP (indigo), and Hoechst 33342 (gray) in 3D ADSC spheroids treated with MSC-EVs derived from CXCL14 peptide-primed ADSCs (CXCL14-P-MSC-EVs) at various time points. […] To further explore the cartilage repair functions of EVs from CXCL14-P-treated ADSCs and the encapsulation of the transcription factor SOX9 within MSCs and purified EVs, we performed in vivo studies.

The subject of test [3] is clinical-grade ADSCs. Briefly: Alcian blue staining of chondrogenic pellets (GAG), ADSCs. The format is cell-based, human. As to conditions: for GAG deposition (Alcian blue): day 7, CXCL14 variants vs CXCL14-P, CXCR4-PM1 vs control. As to the method:
The chondrogenic differentiation of pellets containing clinical-grade ADSCs was assessed through Alcian blue staining.
The chondrogenic differentiation of pellets containing clinical-grade ADSCs was evaluated using Alcian blue staining.
as §1
To assess differentiation capacity, single-cell suspensions from cultured IPFP-MSCs and ADSCs were cultivated in chondrogenic medium. Alcian Blue staining was performed on day 7 to evaluate chondrogenic differentiation. The chondrogenic differentiation test was measured gene expressions of ACAN, COL2A1, SOX9, COMP, ITGB1, CXCL14 and SOSTDC1.

The subject of test [4] is UC-MSCs. Briefly: Real-time PCR of chondrogenic genes in UC-MSCs. The format is cell-based. As to conditions: day 7 of peptide treatment. The source says:
(§2) FIG. 13A provides flowchart illustrating the protocol for peptide treatment and sample collection. […] TGF-beta influenced the expression of chondrogenic genes, including ITGB1 and COMP. […] Treatment with CXCL14/CXCL12 peptides increased GAG content during chondrogenesis in the presence of TGF-beta.
(§3) To further validate the role of CXCL14-P and CXCL12-P in regulating chondrogenesis, we compared their effects on another MSC source, umbilical cord-derived mesenchymal stem cells (UC-MSCs). It is important to note that the chondrogenic induction medium contained TGF-β. During chondrogenesis, we observed that the chondrogenic patterns in UC-MSCs were lower than those in ADSCs (FIG. 12). Subsequently, we assessed the chondrogenic potential of UC-MSCs following stimulation with CXCL14-P and CXCL12-P (FIG. 13A). […] Although the expression of chondrogenic genes (FIG. 13B) and GAG content (FIG. 13C) in UC-MSCs was not as pronounced as in ADSCs, the findings confirm that CXCL14-P and CXCL12-P can robustly stimulate chondrogenesis across different MSC sources.

Test [5] concerns UC-MSCs. Briefly: Alcian blue staining of chondrogenic pellets (GAG), UC-MSCs. As to conditions: in the presence of TGF-beta. The format is cell-based.
Source text: as §2, §3

For test [6], the system named is ADSCs. Briefly: Cellular uptake of fluorescently labeled peptides by fluorescence microscopy. As to conditions: 10 ng FITC-conjugated peptide, 37° C. for one day, observed days 1, 3, 7. It is filed as cell-based, human. As for the experimental part: Cell-penetrating properties of CXCL14-P and CXCL12-P peptides in ADSCs were analyzed. ADSCs were incubated with 10 ng of FITC-conjugated peptides at 37° C. for one day, followed by refreshing the chondrogenic medium. Peptide internalization was evaluated through fluorescence microscopy on days 1, 3, and 7.
We further explored whether peptides derived from CXCL14 and CXCL12 have the capacity to induce chondrogenesis in MSCs from different sources. To assess their potential, ADSCs were utilized in the study to evaluate the chondrogenic capacity of CXCL14-P and CXCL12-P on day 7 (FIG. 10A). […] FIG. 11 illustrates the cell-penetrating properties of CXCL14-P and CXCL12-P peptides in ADSCs, analyzed at different time points. ADSCs were incubated with FITC-conjugated peptides for one day, after which the chondrogenic medium was refreshed. […] Collectively, these observations indicate that CXCL14-P and CXCL12-P have the ability to stimulate chondrogenesis and further amplify the effects of TGF-β during the chondrogenic process.

Entries after “also recorded” stand apart in the source; their conditions may differ.

For AANVAHLAILN [CXCL12-PM1], in test [1] (CXCL12-P vs CXCL12-PM1, day 7), the “expression of chondrogenic marker genes, variant vs unmodified peptide” value is reported as “no significant changes”. In addition, the “expression of chondrogenic genes (SOX9, COL2A1, COMP, ACAN, ITGB1, CXCL14, CXCR4)” value in test [1] was “significantly enhance”.

On to “CXCL12: C-X-C motif chemokine 12, also known as stromal cell-derived factor 1 (SDF-1)”, for which the “expression of SOX9, type II collagen, and aggrecan” value in test [2] was “notably induced”.

Turning to ITTASVSAYAGQEH [CXCL14-PM1], the “expression of chondrogenic genes (SOX9, COL2A1, COMP, ACAN, ITGB1, CXCL14, CXCR4)” value in test [1] was “significantly enhance”. Also, the “GAG deposition (Alcian blue)” value in test [3] is on record as “increased GAG deposition; also recorded: enhance GAG contents”.

Regarding ITTKSVSRYRGDEH [CXCL14-PM3], the “expression of chondrogenic genes (SOX9, COL2A1, COMP, ACAN, ITGB1, CXCL14, CXCR4)” value in test [1] is “significantly enhance”. For the same substance, in test [3], the “GAG deposition (Alcian blue)” value was “increased GAG deposition; also recorded: did not significantly alter GAG contents”.

ITTKSVSRYRGQAH [CXCL14-PM2]: the “expression of chondrogenic genes (SOX9, COL2A1, COMP, ACAN, ITGB1, CXCL14, CXCR4)” value in test [1] was “significantly enhance”. Also, the “GAG deposition (Alcian blue)” value in test [3] is given as “increased GAG deposition; also recorded: enhance GAG contents”.

“MGYGAALASMTDAYAL (MGYQAALASMTDAYAL) [CXCR4-PM1]”: the “expression of chondrogenic genes (SOX9, COL2A1, COMP, ACAN, ITGB1, CXCL14, CXCR4)” value in test [1] is recorded as “significantly enhance”. Besides, the “GAG deposition (Alcian blue)” value in test [3] is listed as “increased GAG deposition; also recorded: significantly enhanced”.

For the substance RANVKHLKILN [CXCL12-P], the “expression of chondrogenic genes (COMP, SOX9, COL2A1, ACAN, ITGB1, SOSTDC1)” value in test [1] (day 7, peptides compared to CXCL12/CXCL14 proteins, listed as CXCL12 peptide) is on record as “significantly upregulated; also recorded: greater ability”. Further, in test [1] (day 7 of treatment with peptide), the “expression of chondrogenic genes (COMP, SOX9, COL2A1, ACAN, ITGB1)” value is given as “significantly upregulated”. The chondrogenic genes result in test [1] (in the absence of TGF-β) is given as “evident”. The “expression of chondrogenic genes ITGB1 and COMP” value in test [1] (in the presence of TGF-β, day 7) is reported as “significantly enhanced”. Further, the “GAG content (Alcian blue)” value in test [3] (in the absence of TGF-β) is “evident”; in test [3] (in the presence of TGF-beta), “significantly increased”; in test [3] (peptides compared to CXCL14/CXCL12 proteins, listed as CXCL12 peptide) it was “significantly higher; also recorded: greater ability”; in test [5], “increased”. Besides, the “chondrogenic gene expression (COMP, SOX9, COL2A1, ACAN, ITGB1)” value in test [4] is “significantly upregulated”. In addition, the “peptide internalization (cell penetration)” value in test [6] is “remain detectable up to day 7”.
